Data from ChEMBL document CHEMBL1201862, “PubChem BioAssay data set” (2004).
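How tested: cells in 96-well plates exposed to compound for 48 hours at five concentrations. Here, GI50 denotes the concentration required for 50% inhibition of growth.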 The source made the active and inactive calls. Rule as the data show it: active = GI50 up to about 1.1 µM and inactive = higher.

Assays:
Assay in all cases: growth of human tumour cells (NCI), 48 h
[1] = test system: UACC-62
[2] = test system: EKVX
[3] = test system: OVCAR-3
[4] = test system: SF-295
[5] = test system: MCF7
[6] = test system: HT-29
[7] = test system: UO-31
[8] = test system: MDA-N
[9] = test system: NCI-H460
[10] = test system: SN12C
[11] = test system: A549
[12] = test system: SK-MEL-5
[13] = test system: Hs-578T
[14] = test system: HOP-62
[15] = test system: A498
[16] = test system: HCT-116
[17] = test system: K562
[18] = test system: RXF 393

SMILES	GI50 [1]	GI50 [2]	GI50 [3]	GI50 [4]	GI50 [5]	GI50 [6]	GI50 [7]	GI50 [8]	GI50 [9]	GI50 [10]	GI50 [11]	GI50 [12]	GI50 [13]	GI50 [14]	GI50 [15]	GI50 [16]	GI50 [17]	GI50 [18]
Cc1c2c(n(Cc3ccccn3)c1C)NN=C(C#N)S2(=O)=O	> 100 µM (inactive)	> 100 µM (inactive)	> 100 µM (inactive)	> 100 µM (inactive)	> 100 µM (inactive)	> 100 µM (inactive)	> 100 µM (inactive)	> 100 µM (inactive)	> 100 µM (inactive)	> 100 µM (inactive)	> 100 µM (inactive)	> 100 µM (inactive)	> 100 µM (inactive)	> 100 µM (inactive)	> 100 µM (inactive)	> 100 µM (inactive)	–	–
CCCCC/C=C\C=C\CCCCCCCCC(=O)OC	–	> 100 µM (inactive)	> 100 µM (inactive)	> 100 µM (inactive)	> 100 µM (inactive)	> 100 µM (inactive)	13.9 µM (inactive)	> 100 µM (inactive)	> 100 µM (inactive)	> 100 µM (inactive)	> 100 µM (inactive)	24 µM (inactive)	> 100 µM (inactive)	> 100 µM (inactive)	> 100 µM (inactive)	> 100 µM (inactive)	> 100 µM (inactive)	> 100 µM (inactive)
COC(=O)Nc1nc2ccccc2[nH]1 [CARBENDAZIM]	4 µM (inactive)	> 52.7 µM (inactive)	4 µM (inactive)	4.72 µM (inactive)	5.07 µM (inactive)	4.66 µM (inactive)	20.7 µM (inactive)	2.98 µM (inactive)	3.36 µM (inactive)	21.9 µM (inactive)	6.97 µM (inactive)	6.03 µM (inactive)	12.9 µM (inactive)	11.1 µM (inactive)	> 100 µM (inactive)	4.21 µM (inactive)	–	17.5 µM (inactive)
O=c1[nH]/c(=C/c2ccc(OCc3ccccc3)cn2)c(=O)[nH]/c1=C/c1ccc(Cl)cc1	1.94 µM (inactive)	> 100 µM (inactive)	0.653 µM (active)	0.692 µM (active)	0.546 µM (active)	2.8 µM (inactive)	2.7 µM (inactive)	0.215 µM (active)	1.79 µM (inactive)	48.3 µM (inactive)	> 84.9 µM (inactive)	1.01 µM (active)	0.804 µM (active)	1.33 µM (inactive)	0.7 µM (active)	–	0.497 µM (active)	4.53 µM (inactive)
Cn1c(=O)n2n(c1=O)C(S(=O)(=O)c1ccccc1)C2 (centres undefined)	> 100 µM (inactive)	> 100 µM (inactive)	> 100 µM (inactive)	> 100 µM (inactive)	> 100 µM (inactive)	> 100 µM (inactive)	> 100 µM (inactive)	> 100 µM (inactive)	> 100 µM (inactive)	> 100 µM (inactive)	> 100 µM (inactive)	> 100 µM (inactive)	> 100 µM (inactive)	> 100 µM (inactive)	–	> 100 µM (inactive)	> 100 µM (inactive)	> 100 µM (inactive)
CC(C)(C)N1C(=O)[N-]/[N+](=C(/C(c2ccccc2)=[N+]2/[N-]C(=O)N(C(C)(C)C)C2=O)c2ccccc2)C1=O	> 100 µM (inactive)	–	> 100 µM (inactive)	> 100 µM (inactive)	> 100 µM (inactive)	–	> 100 µM (inactive)	> 100 µM (inactive)	> 100 µM (inactive)	> 100 µM (inactive)	> 100 µM (inactive)	> 100 µM (inactive)	> 100 µM (inactive)	–	> 100 µM (inactive)	> 100 µM (inactive)	> 100 µM (inactive)	> 100 µM (inactive)
O=[N+]([O-])/C=C\c1c[nH]c2ccc(OCc3ccccc3)cc12	2.9 µM (inactive)	13.4 µM (inactive)	10.4 µM (inactive)	10.6 µM (inactive)	6.49 µM (inactive)	–	3.58 µM (inactive)	2.23 µM (inactive)	4.43 µM (inactive)	2.24 µM (inactive)	4.31 µM (inactive)	5.06 µM (inactive)	3.57 µM (inactive)	12.9 µM (inactive)	10.5 µM (inactive)	1.73 µM (inactive)	2.55 µM (inactive)	2.58 µM (inactive)
Cc1[nH]c(=O)[nH]c(=O)c1N(CCF)CCCl [FLUORODOPAN]	283 µM (inactive)	–	442 µM (inactive)	284 µM (inactive)	256 µM (inactive)	442 µM (inactive)	–	409 µM (inactive)	–	–	265 µM (inactive)	196 µM (inactive)	635 µM (inactive)	318 µM (inactive)	418 µM (inactive)	439 µM (inactive)	244 µM (inactive)	219 µM (inactive)
CC(C)N(c1cc2c(cc1F)c(=O)c(C(=O)O)cn2-c1ccc(N2CCN(C)CC2)cn1)C(C)C	> 10 µM (inactive)	> 100 µM (inactive)	> 100 µM (inactive)	> 100 µM (inactive)	> 100 µM (inactive)	> 100 µM (inactive)	> 100 µM (inactive)	> 100 µM (inactive)	> 100 µM (inactive)	> 100 µM (inactive)	> 100 µM (inactive)	–	> 100 µM (inactive)	> 100 µM (inactive)	> 100 µM (inactive)	> 100 µM (inactive)	> 100 µM (inactive)	> 100 µM (inactive)
Oc1nc2nc3ccccc3nc2nc1O	> 100 µM (inactive)	> 100 µM (inactive)	> 100 µM (inactive)	> 100 µM (inactive)	> 100 µM (inactive)	> 100 µM (inactive)	> 100 µM (inactive)	> 100 µM (inactive)	> 100 µM (inactive)	> 100 µM (inactive)	> 100 µM (inactive)	> 100 µM (inactive)	> 100 µM (inactive)	> 100 µM (inactive)	–	> 100 µM (inactive)	> 100 µM (inactive)	> 100 µM (inactive)
CCc1cc2c(c3c1CCCC3=O)CC1(Cc3ccc(C(=O)OC)cc3C1)C2 (centres undefined)	–	96.6 µM (inactive)	> 100 µM (inactive)	85.7 µM (inactive)	24 µM (inactive)	68.1 µM (inactive)	48.3 µM (inactive)	> 100 µM (inactive)	> 100 µM (inactive)	> 100 µM (inactive)	48.4 µM (inactive)	15 µM (inactive)	> 100 µM (inactive)	> 100 µM (inactive)	> 100 µM (inactive)	37.9 µM (inactive)	22 µM (inactive)	32.5 µM (inactive)
CCOC(=O)c1ccc(/N=C2\Sc3nc4ccccc4n3\C2=N\c2ccc(C(=O)OCC)cc2)cc1	16.1 µM (inactive)	42.6 µM (inactive)	12.9 µM (inactive)	16.2 µM (inactive)	8.83 µM (inactive)	19.6 µM (inactive)	–	18.5 µM (inactive)	22.5 µM (inactive)	40.6 µM (inactive)	25.2 µM (inactive)	25.9 µM (inactive)	22.6 µM (inactive)	21.5 µM (inactive)	34.3 µM (inactive)	6.58 µM (inactive)	–	28.8 µM (inactive)
CC(NC(=O)CNP(=O)(c1ccccc1)c1ccccc1)C(=O)NC(Cc1ccccc1)C(=O)OCc1ccccc1 (centres undefined)	36.3 µM (inactive)	24.1 µM (inactive)	43 µM (inactive)	19 µM (inactive)	24.6 µM (inactive)	92.9 µM (inactive)	> 100 µM (inactive)	43.3 µM (inactive)	–	42.7 µM (inactive)	> 100 µM (inactive)	25.7 µM (inactive)	27.5 µM (inactive)	> 100 µM (inactive)	> 100 µM (inactive)	34.9 µM (inactive)	> 10 µM (inactive)	21 µM (inactive)
O=C([O-])C1([n+]2c(-c3ccccc3)cc(-c3ccccc3)cc2-c2ccccc2)CC1	21.5 µM (inactive)	22.7 µM (inactive)	38.6 µM (inactive)	> 100 µM (inactive)	28.1 µM (inactive)	48.8 µM (inactive)	–	53.8 µM (inactive)	74.5 µM (inactive)	> 100 µM (inactive)	> 100 µM (inactive)	19.6 µM (inactive)	56.8 µM (inactive)	> 100 µM (inactive)	> 100 µM (inactive)	41.1 µM (inactive)	27.5 µM (inactive)	> 100 µM (inactive)
N#Cc1c(-c2ccc(Cl)cc2)cc(-c2ccc(Nc3ccnc4cc(C(F)(F)F)ccc34)cc2)[nH]c1=O	21.9 µM (inactive)	> 100 µM (inactive)	8.26 µM (inactive)	36.1 µM (inactive)	4.79 µM (inactive)	7.13 µM (inactive)	–	3.53 µM (inactive)	> 100 µM (inactive)	59.2 µM (inactive)	> 100 µM (inactive)	19.1 µM (inactive)	20 µM (inactive)	23.6 µM (inactive)	> 51.8 µM (inactive)	4.76 µM (inactive)	3.52 µM (inactive)	8.93 µM (inactive)
CN(C)C(=O)Oc1ccc(C(=S)Nc2ccccc2)cc1	35.9 µM (inactive)	45.9 µM (inactive)	86.5 µM (inactive)	87.7 µM (inactive)	76 µM (inactive)	51.2 µM (inactive)	75.3 µM (inactive)	37.4 µM (inactive)	40.5 µM (inactive)	–	66.2 µM (inactive)	24 µM (inactive)	> 100 µM (inactive)	> 100 µM (inactive)	> 100 µM (inactive)	> 100 µM (inactive)	24.8 µM (inactive)	–
